Target: T1, Sodium- and chloride-dependent creatine transporter 1 (Homo sapiens, UniProt P48029)
T1 sequence (P48029 whole entry): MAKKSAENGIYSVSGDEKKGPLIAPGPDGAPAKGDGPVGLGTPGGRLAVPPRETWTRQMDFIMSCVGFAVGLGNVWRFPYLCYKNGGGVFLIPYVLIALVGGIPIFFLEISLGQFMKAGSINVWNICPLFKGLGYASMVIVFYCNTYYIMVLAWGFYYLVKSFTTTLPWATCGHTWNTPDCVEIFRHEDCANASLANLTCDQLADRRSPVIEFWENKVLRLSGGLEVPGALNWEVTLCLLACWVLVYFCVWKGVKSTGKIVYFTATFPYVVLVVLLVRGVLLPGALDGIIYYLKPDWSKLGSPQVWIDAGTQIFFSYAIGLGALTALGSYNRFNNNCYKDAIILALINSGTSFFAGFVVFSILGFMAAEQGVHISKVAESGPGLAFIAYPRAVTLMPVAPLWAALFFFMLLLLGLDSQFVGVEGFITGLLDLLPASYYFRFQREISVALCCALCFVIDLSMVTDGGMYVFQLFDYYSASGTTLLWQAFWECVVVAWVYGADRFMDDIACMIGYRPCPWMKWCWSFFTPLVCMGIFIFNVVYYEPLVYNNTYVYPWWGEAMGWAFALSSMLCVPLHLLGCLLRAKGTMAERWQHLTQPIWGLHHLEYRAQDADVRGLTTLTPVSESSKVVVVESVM
Assay: Substrate uptake by the Sodium- and Chloride-Dependent Creatine Transporter 1 (CRTR, SLC6A8) as assessed by the fluorescent FLIPR membrane potential dye in HEK-293 JumpIN-SLC6A8 cells (PubChem AID: 1794823)
Type: functional, cell-based, HEK293

EC50: 5 µM
Structure (SMILES): CN(CC(=O)O)C(=N)N [CREATINE]

Reference: ChEMBL document CHEMBL5209569, “Membrane potential based assay for SLC6A8 using HEK-293 JumpIN SLC6A8 OE cells” (2022)
